Measured values: the SangsterLogP compilation

Assay: method code SF, from PMID: 1610484
Conditions: not given

logP	Compound
0.01	COCCCNC(=O)C(F)(F)Cn1cnc([N+](=O)[O-])n1
0.4	CSCCNC(=O)C(F)(F)Cn1cnc([N+](=O)[O-])n1
0.26	CSCCCNC(=O)Cn1cnc([N+](=O)[O-])n1
0.76	CSCCCNC(=O)C(F)(F)Cn1cnc([N+](=O)[O-])n1
-1.37	O=C(Cn1cnc([N+](=O)[O-])n1)NCCO
-0.07	CSCCNC(=O)CCn1cnc([N+](=O)[O-])n1
-0.29	COCCNC(=O)C(F)(F)Cn1cnc([N+](=O)[O-])n1
-0.65	COCCNC(=O)CCn1cnc([N+](=O)[O-])n1
0.63	COCCCNC(=S)Cn1cnc([N+](=O)[O-])n1
-0.1	CSCCNC(=O)Cn1cnc([N+](=O)[O-])n1
0.25	COCCNC(=S)Cn1cnc([N+](=O)[O-])n1
-0.63	O=C(NCCCO)C(F)(F)Cn1cnc([N+](=O)[O-])n1

Same assay, conditions: pH 7.4

logD	Compound
-0.77	COCCNC(=O)Cn1cnc([N+](=O)[O-])n1
-0.51	COCCCNC(=O)Cn1cnc([N+](=O)[O-])n1
